Data as given in article PMC5117811 (Nature chemical biology, 2016).

Assays:
BRD4(1) [1] = biological target: T1, BRD4(1) (Homo sapiens, UniProt O60885); assay: BRD4; assay type: binding; conditions: BRD4(1) AlphaScreen, compared to JQ1
[2] = Plasma pharmacokinetic analyses in CD1 mice; conditions: 50 mg/kg intraperitoneally
MYC = assay: Immunoblot for MYC in MV4; assay type: cell-based, human; conditions: MV4;11 cells
BRD4(1) [3] = biological target: T1, BRD4(1); assay: BROMOscan
BRD4(1,2) = BRD4(1,2) (Homo sapiens, UniProt O60885); assay: BROMOscan
BRD4 = BRD4 (Homo sapiens, UniProt O60885); assay: Immunoblot for BRD4 protein level in MV4; assay type: cell-based; conditions: MV4;11 cells
HEXIM1 = assay: Immunoblot for HEXIM1 in MV4; assay type: cell-based, human; conditions: MV4;11 cells, 10 nM, later time points (4–24 hours)
BRD4(2) = BRD4(2) (Homo sapiens, UniProt O60885); assay: BROMOscan
[4] = biological target: BRD4 (full-length, short-iso.) (Homo sapiens, UniProt O60885); assay: BROMOscan

## COC(=O)C[C@@H]1N=C(c2ccc(Cl)cc2)c2c(sc(C(=O)NCCOCCNC(=O)c3sc4c(c3C)C(c3ccc(Cl)cc3)=N[C@@H](CC(=O)OC)c3nnc(C)n3-4)c2C)-n2c(C)nnc21 [(2S+2S)-PEG1, Dimethyl 2,2'-((6S,6'S)-(((oxybis(ethane-2,1-diyl))bis(azanediyl))bis(carbonyl))bis(4-(4-chlorophenyl)-3,9-dimethyl-6H-thieno[3,2-f][1,2,4]triazolo[4,3-a][1,4]diazepine-2,6-diyl))diacetate]
BRD4(1) [1]
  increase in biochemical potency: 20 fold

## COC(=O)C[C@@H]1N=C(c2ccc(Cl)cc2)c2c(sc(C(=O)NCCNC(=O)C[C@@H]3N=C(c4ccc(Cl)cc4)c4c(sc(C)c4C)-n4c(C)nnc43)c2C)-n2c(C)nnc21 [(6S+2S)-PEG0, Methyl 2-((S)-4-(4-chlorophenyl)-2-((2-(2-((S)-4-(4-chlorophenyl)-2,3,9-trimethyl-6H-thieno[3,2-f][1,2,4]triazolo[4,3-a][1,4]diazepin-6-yl)acetamido)ethyl)carbamoyl)-3,9-dimethyl-6H-thieno[3,2-f][1,2,4]triazolo[4,3-a][1,4]diazepin-6-yl)acetate]
[2]
  PK properties: comparable PK properties to MT1

## COC(=O)C[C@@H]1N=C(c2ccc(Cl)cc2)c2c(sc(C(=O)NCCOCCNC(=O)C[C@@H]3N=C(c4ccc(Cl)cc4)c4c(sc(C)c4C)-n4c(C)nnc43)c2C)-n2c(C)nnc21 [(6S+2S)-PEG1, Methyl 2-((S)-4-(4-chlorophenyl)-2-((2-(2-(2-((S)-4-(4-chlorophenyl)-2,3,9-trimethyl-6H-thieno[3,2-f][1,2,4]triazolo[4,3-a][1,4]diazepin-6-yl)acetamido)ethoxy)ethyl)carbamoyl)-3,9-dimethyl-6H-thieno[3,2-f][1,2,4]triazolo[4,3-a][1,4]diazepin-6-yl)acetate]
MYC; 10 nM
  time of maximum effect on MYC: 2 h
MYC; two hours of treatment
  lowest concentration at which MYC was downregulated: 10 nM
BRD4(1) [3]
  displacement of phage expressing BRD4(1): picomolar
BRD4(1,2)
  displacement of phage expressing tandem bromodomain construct BRD4(1,2): picomolar
BRD4
  effect on BRD4 protein stability (degradation): No effect on protein stability
HEXIM1
  HEXIM1 expression: upregulation
BRD4(2)
  displacement of phage expressing BRD4(2): picomolar
[4]
  displacement of phage expressing full length protein BRD4(full): picomolar
